This note sets out measurements from US10662156B2, “Guanidine derivative and medical use thereof” (Toray Industries, Inc., priority 2016, dated 2020).

Structures can show the parent of a compound that is named as a salt.

Chain of recombinant GST fusion MALT1 (human MALT1) (Q9UDY8 whole entry, the tested form may be a part): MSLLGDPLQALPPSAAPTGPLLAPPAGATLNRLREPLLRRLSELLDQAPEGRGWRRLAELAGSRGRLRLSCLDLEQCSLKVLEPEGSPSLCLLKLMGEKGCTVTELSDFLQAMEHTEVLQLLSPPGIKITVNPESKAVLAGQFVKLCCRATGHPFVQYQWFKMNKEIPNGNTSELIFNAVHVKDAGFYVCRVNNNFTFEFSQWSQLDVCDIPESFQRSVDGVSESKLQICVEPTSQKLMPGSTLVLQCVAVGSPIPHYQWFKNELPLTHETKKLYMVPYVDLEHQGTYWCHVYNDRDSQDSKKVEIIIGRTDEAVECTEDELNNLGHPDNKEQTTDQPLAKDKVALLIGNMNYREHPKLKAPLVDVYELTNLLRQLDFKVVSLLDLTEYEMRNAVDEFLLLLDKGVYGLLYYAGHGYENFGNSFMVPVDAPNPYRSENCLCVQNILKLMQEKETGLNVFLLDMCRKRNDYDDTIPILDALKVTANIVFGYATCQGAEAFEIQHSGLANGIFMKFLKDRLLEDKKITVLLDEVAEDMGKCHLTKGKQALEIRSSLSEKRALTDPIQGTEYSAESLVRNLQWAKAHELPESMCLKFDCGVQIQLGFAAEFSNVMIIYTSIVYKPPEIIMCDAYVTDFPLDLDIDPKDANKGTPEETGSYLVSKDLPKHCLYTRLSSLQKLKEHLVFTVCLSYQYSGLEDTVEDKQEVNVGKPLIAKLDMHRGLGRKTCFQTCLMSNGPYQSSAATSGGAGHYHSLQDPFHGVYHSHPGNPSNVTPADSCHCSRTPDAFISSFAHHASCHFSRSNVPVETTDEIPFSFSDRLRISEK

For this experiment, the target named is recombinant GST fusion MALT1 (human MALT1) (Homo sapiens (Human), UniProt Q9UDY8). As to the kind of experiment: Evaluation of inhibition of protease activity of MALT1 (cleavage of fluorescent peptide substrate Ac-LRSR-AMC). It counts as biochemical. The note with it: substrate Ac-LRSR-AMC 20 μmol/L, 30° C. for 80 minutes. The procedure:
The guanidine derivative (I) or the pharmacologically acceptable salt thereof was evaluated for its inhibition of the protease activity of MALT1 in an in vitro experimental system in accordance with the method described in the literature (Cancer Cell, 2012, Vol. 22, p. 825-837). Specifically, the evaluation was conducted by measuring the degree of reduction in fluorescence value by the compound relative to elevation in fluorescence value resulting from the cleavage of a fluorescently labeled artificial peptide substrate by recombinant MALT1.
A) Preparation of Recombinant GST Fusion MALT1:
Full-length cDNA of human MALT1 gene (GenBank accession No: AB026118.1) amplified by PCR was inserted in flame to a SalI site located downstream of GST gene in a pGEX6P3 vector (GE Healthcare Japan Corp.) to prepare a vector (hereinafter, referred to as a pGEX6P3-MALT1 vector). Subsequently, E. coli for protein expression (BL21-RIL-codon plus-DE3, Agilent Technologies, Inc.) was transformed with the pGEX6P3-MALT1 vector and then analyzed by ampicillin resistance screening and colony PCR to obtain an E. coli strain expressing recombinant GST fusion MALT1. Protein expression was induced with isopropyl-(3-thiogalactopyranoside. After the expression induction, E. coli precipitates were recovered by centrifugation from the E. coli culture solution, and the E. coli precipitates were homogenized and then centrifuged to obtain a supernatant. The supernatant was purified using GSTrap FF column (GE Healthcare Japan Corp.) to obtain recombinant GST fusion MALT1.
B) Evaluation of Inhibition of Protease Activity of MALT1:
To 89 μL of an enzyme solution ([…] GST fusion MALT1, 50 mmol/L MES, 150 mmol/L NaCl, 10% sucrose, 0.1% CHAPS, 10 mmol/L dithiothreitol, and 1 mol/L tri-ammonium citrate) per specimen, 1 μL of a test compound (DMSO-diluted solution) of each concentration was added to prepare a mixed solution. The mixed solution was incubated at room temperature for 30 minutes, followed by the measurement of the fluorescence value of the mixed solution (fluorescence value of the first measurement) (Ex: 380 nm, Em: 460 nm; Envision (Perkin Elmer Inc.)). Next, 10 μL of 200 μmol/L substrate (Ac-LRSR-AMC, SM Biochemicals LLC) was added (final concentration: 20 μmol/L) to the mixed solution, and the mixture was reacted by incubation at 30° C. for 80 minutes, followed by the measurement of the fluorescence value of the reaction solution (fluorescence value of the second measurement) (Ex: 380 nm, Em: 460 nm; Envision (Perkin Elmer Inc.)). A “well nonsupplemented with the test compound (only DMSO was added), nonsupplemented with the enzyme and supplemented with the substrate”, and a “well nonsupplemented with the test compound (only DMSO was added), supplemented with the enzyme and supplemented with the substrate” were established.
The fluorescence value of the first measurement was defined as “F1”, and the fluorescence value of the second measurement was defined as “F2”. F2−F1 of the “well nonsupplemented with the test compound (only DMSO was added), nonsupplemented with the enzyme and supplemented with the substrate” was defined as “Fback”, F2−F1 of the “well nonsupplemented with the test compound (only DMSO was added), supplemented with the enzyme and supplemented with the substrate” was defined as “Fpositive”, and F2−F1 of the “well supplemented with the test compound, supplemented with the enzyme and supplemented with the substrate” was defined as “Fsample”. The rate of inhibition (%) of the protease activity of MALT1 by the test compound was calculated according to the following expression. Rate of inhibition (%)=100×(1−(Fsample−Fback)/(Fpositive−Fback))
In the case of `N#Cc1ccc(S(=O)(=O)/N=C(\N)NCc2cnc(-c3ccc(Cl)cc3)c(-c3ccc(Cl)cc3)c2)cn1` [Compound of Example 52, N-(amino(((5,6-bis(4-chlorophenyl)pyridin-3-yl)methyl)amino)methylene)-6-cyanopyridine-3-sulfonamide], the IC50 was determined as 390 nM.
`Cn1cc(S(=O)(=O)/N=C(\N)NCc2cnc(-c3ccc(Cl)cc3)c(-c3ccc(Cl)cc3)c2)cn1` [Compound of Example 53, N-(amino(((5,6-bis(4-chlorophenyl)pyridin-3-yl)methyl)amino)methylene)-1-methyl-1H-pyrazole-4-sulfonamide]: the IC50 worked out at 2010 nM.
Regarding `N/C(=N\S(=O)(=O)c1ccc(Cl)s1)NCc1cnc(-c2ccc(Cl)cc2)c(-c2ccc(Cl)cc2)c1` [Compound of Example 54, N-(amino(((5,6-bis(4-chlorophenyl)pyridin-3-yl)methyl)amino)methylene)-5-chlorothiophene-2-sulfonamide], the IC50 was found to be 169 nM.
To `N/C(=N\S(=O)(=O)c1cc2ccccc2s1)NCc1cnc(-c2ccc(Cl)cc2)c(-c2ccc(Cl)cc2)c1` [Compound of Example 55, N-(amino(((5,6-bis(4-chlorophenyl)pyridin-3-yl)methyl)amino)methylene)benzo[b]thiophene-2-sulfonamide] belongs 183 nM.
The value for `N/C(=N\S(=O)(=O)C1CCCCC1)NCc1cnc(-c2ccc(Cl)cc2)c(-c2ccc(Cl)cc2)c1` [Compound of Example 56, N-(amino(((5,6-bis(4-chlorophenyl)pyridin-3-yl)methyl)amino)methylene)cyclohexanesulfonamide] was 429 nM.
Turning to `N/C(=N\S(=O)(=O)C1CCCC1)NCc1cnc(-c2ccc(Cl)cc2)c(-c2ccc(Cl)cc2)c1` [Compound of Example 57, N-(amino(((5,6-bis(4-chlorophenyl)pyridin-3-yl)methyl)amino)methylene)cyclopentanesulfonamide], the concentration for half-maximal inhibition (IC50) stood at 517 nM.
With `N/C(=N\S(=O)(=O)C1CC1)NCc1cnc(-c2ccc(Cl)cc2)c(-c2ccc(Cl)cc2)c1` [Compound of Example 58, N-(amino(((5,6-bis(4-chlorophenyl)pyridin-3-yl)methyl)amino)methylene)cyclopropanesulfonamide], the IC50 came to 743 nM.
To `N/C(=N\S(=O)(=O)Cc1ccccc1)NCc1cnc(-c2ccc(Cl)cc2)c(-c2ccc(Cl)cc2)c1` [Compound of Example 59, N-(amino(((5,6-bis(4-chlorophenyl)pyridin-3-yl)methyl)amino)methylene)-1-phenylmethanesulfonamide] belongs 746 nM.
The value for `CN(C)S(=O)(=O)/N=C(\N)NCc1cnc(-c2ccc(Cl)cc2)c(-c2ccc(Cl)cc2)c1` [Compound of Example 60, ((2-amino-2-(((5,6-bis(4-chlorophenyl)pyridin-3-yl)methyl)amino)-1-azavinyl)sulfonyl)dimethylamine] was 1320 nM; that for `N/C(=N\C(=O)c1nccs1)NCc1cnc(-c2ccc(Cl)cc2)c(-c2ccc(Cl)cc2)c1` [Compound of Example 61, N-(amino(((5,6-bis(4-chlorophenyl)pyridin-3-yl)methyl)amino)methylene)thiazole-2-carboxamide] was 408 nM; that for `N#Cc1ccc(C(=O)/N=C(\N)NCc2cnc(-c3ccc(Cl)cc3)c(-c3ccc(Cl)cc3)c2)cc1` [Compound of Example 62, N-(amino(((5,6-bis(4-chlorophenyl)pyridin-3-yl)methyl)amino)methylene)-4-cyanobenzamide] was 471 nM.
On to `COCC(=O)/N=C(\N)NCc1cnc(-c2ccc(Cl)cc2)c(-c2ccc(Cl)cc2)c1` [Compound of Example 63, N-(amino(((5,6-bis(4-chlorophenyl)pyridin-3-yl)methyl)amino)methylene)-2-methoxyacetamide], for which the IC50 was 640 nM.
For `CCCCCC(=O)/N=C(\N)NCc1cnc(-c2ccc(Cl)cc2)c(-c2ccc(Cl)cc2)c1` [Compound of Example 65, N-(amino(((5,6-bis(4-chlorophenyl)pyridin-3-yl)methyl)amino)methylene)hexanamide], the IC50 was 462 nM.
The value for `N/C(=N\C(=O)c1ccc(F)cc1)NCc1cnc(-c2ccc(Cl)cc2)c(-c2ccc(Cl)cc2)c1` [Compound of Example 66, N-(amino(((5,6-bis(4-chlorophenyl)pyridin-3-yl)methyl)amino)methylene)-4-fluorobenzamide] was 1130 nM; that for `N/C(=N\C(=O)c1ccccc1F)NCc1cnc(-c2ccc(Cl)cc2)c(-c2ccc(Cl)cc2)c1` [Compound of Example 67, N-(amino(((5,6-bis(4-chlorophenyl)pyridin-3-yl)methyl)amino)methylene)-2-fluorobenzamide] was 644 nM.
With `N/C(=N\C(=O)c1ccsc1)NCc1cnc(-c2ccc(Cl)cc2)c(-c2ccc(Cl)cc2)c1` [Compound of Example 68, N-(amino(((5,6-bis(4-chlorophenyl)pyridin-3-yl)methyl)amino)methylene)thiophene-3-carboxamide], the IC50 is 570 nM.
To `COc1ccc(C(=O)/N=C(\N)NCc2cnc(-c3ccc(Cl)cc3)c(-c3ccc(Cl)cc3)c2)cc1` [Compound of Example 69, N-(amino(((5,6-bis(4-chlorophenyl)pyridin-3-yl)methyl)amino)methylene)-4-methoxybenzamide] belongs 778 nM; to `N/C(=N\C(=O)C1CCCC1)NCc1cnc(-c2ccc(Cl)cc2)c(-c2ccc(Cl)cc2)c1` [Compound of Example 70, N-(amino(((5,6-bis(4-chlorophenyl)pyridin-3-yl)methyl)amino)methylene)cyclopentanecarboxamide], 341 nM; to `N/C(=N\C(=O)C1CC1)NCc1cnc(-c2ccc(Cl)cc2)c(-c2ccc(Cl)cc2)c1` [Compound of Example 71, N-(amino(((5,6-bis(4-chlorophenyl)pyridin-3-yl)methyl)amino)methylene)cyclopropanecarboxamide], 565 nM.
To `N/C(=N\C(=O)C1CCCCC1)NCc1cnc(-c2ccc(Cl)cc2)c(-c2ccc(Cl)cc2)c1` [Compound of Example 73, N-(amino(((5,6-bis(4-chlorophenyl)pyridin-3-yl)methyl)amino)methylene)cyclohexanecarboxamide Hydrochloride] belongs 300 nM.
The value for `N/C(=N\C(=O)CCc1ccccc1)NCc1cnc(-c2ccc(Cl)cc2)c(-c2ccc(Cl)cc2)c1` [Compound of Example 74, N-(amino(((5,6-bis(4-chlorophenyl)pyridin-3-yl)methyl)amino)methylene)-3-phenylpropanamide] was 296 nM.
As to `N/C(=N\C(=O)Cc1ccccc1)NCc1cnc(-c2ccc(Cl)cc2)c(-c2ccc(Cl)cc2)c1` [Compound of Example 75, N-(amino(((5,6-bis(4-chlorophenyl)pyridin-3-yl)methyl)amino)methylene)-2-phenylacetamide], the IC50 was found to be 353 nM.
`N/C(=N\C(=O)c1ccc(Cl)cc1)NCc1cnc(-c2ccc(Cl)cc2)c(-c2ccc(Cl)cc2)c1` [Compound of Example 76, N-(amino(((5,6-bis(4-chlorophenyl)pyridin-3-yl)methyl)amino)methylene)-4-chlorobenzamide]: the IC50 is 1510 nM.
The value for `N/C(=N\C(=O)c1ccc(C(F)(F)F)cc1)NCc1cnc(-c2ccc(Cl)cc2)c(-c2ccc(Cl)cc2)c1` [Compound of Example 77, N-(amino(((5,6-bis(4-chlorophenyl)pyridin-3-yl)methyl)amino)methylene)-4-trifluoromethylbenzamide] was 817 nM; that for `N/C(=N\C(=O)c1ccco1)NCc1cnc(-c2ccc(Cl)cc2)c(-c2ccc(Cl)cc2)c1` [Compound of Example 78, N-(amino(((5,6-bis(4-chlorophenyl)pyridin-3-yl)methyl)amino)methylene)furan-2-carboxamide] was 754 nM.
